Each structure is given as a SMILES string.

Test [1] has as its target T1, Galectin-3 (Homo sapiens, UniProt P17931). The test can be described thus: Inhibition of human recombinant wild type galectin 3 after 60 mins by surface plasmon resonance immunosensor assay. Background: In SPR one partner is held on a chip, and binding of the other changes the refractive index at the surface.
In test [2] the target is T1, Galectin-3. Kind of test: Inhibition of human recombinant wild type galectin 3 first carbohydrate recognition domain after 60 mins by surface plasmon resonance immunosensor assay.
The target in test [3] is T1, Galectin-3. Kind of test: Inhibition of human recombinant wild type galectin 3 second carbohydrate recognition domain after 60 mins by surface plasmon resonance immunosensor assay.

T1 sequence (P17931 whole entry, the tested form may be a part): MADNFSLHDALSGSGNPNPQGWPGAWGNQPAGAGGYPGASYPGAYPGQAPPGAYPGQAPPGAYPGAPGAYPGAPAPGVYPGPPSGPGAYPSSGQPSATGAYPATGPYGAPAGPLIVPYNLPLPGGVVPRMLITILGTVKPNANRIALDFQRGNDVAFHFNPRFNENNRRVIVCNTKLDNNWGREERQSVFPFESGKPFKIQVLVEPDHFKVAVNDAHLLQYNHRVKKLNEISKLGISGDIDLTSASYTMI

What is called Kd is the constant that tells how readily two partners part at equilibrium. For the compound `CO[C@H]1O[C@H](CO)[C@H](O)[C@H](OCc2cn([C@H](C(=O)O)[C@@H](C)O)nn2)[C@H]1O`, on Galectin-3 [1], the Kd came out at 88.2 µM.

For `CO[C@H]1O[C@H](CO)[C@H](O)[C@H](OCc2cn([C@@H](Cc3ccccc3)C(=O)O)nn2)[C@H]1O`, on Galectin-3 [1], the Kd amounted to 7.96 µM.

In the case of `CO[C@H]1O[C@H](CO)[C@H](O)[C@H](OCc2cn([C@@H](Cc3cc4ccccc4[nH]3)C(=O)O)nn2)[C@H]1O`, the Kd on Galectin-3 [1] stood at 28.1 µM.

Take `CO[C@H]1O[C@H](CO)[C@H](O)[C@H](OCc2cn([C@@H](CCCCN)C(=O)O)nn2)[C@H]1O`: the Kd at Galectin-3 [1] amounted to 4.56 µM.

Regarding `CO[C@H]1O[C@H](CO)[C@H](O)[C@H](OCc2cn([C@@H](CC(=O)O)C(=O)O)nn2)[C@H]1O`, at Galectin-3 [1], the Kd came to 11.1 µM.

As for `CO[C@H]1O[C@H](CO)[C@H](O)[C@H](OCc2cn([C@@H](Cc3ccc(O)cc3)C(=O)O)nn2)[C@H]1O`, the Kd on Galectin-3 [1] came out at 19.9 µM.

Turning to `OC[C@H]1O[C@@H](O[C@H]2[C@H](O)[C@@H](O)[C@H](OCCOCCOCCn3cc(CO[C@@H]4O[C@H](CO)[C@@H](O[C@@H]5O[C@H](CO)[C@H](O)[C@H](O)[C@H]5O)[C@H](O)[C@H]4O)nn3)O[C@@H]2CO)[C@H](O)[C@@H](O)[C@H]1O`, the Kd on Galectin-3 [2] was determined as 0.5 µM; at Galectin-3 [3] it was 19 µM.

Source of the values: ChEMBL document CHEMBL3588822, “Synthetic 1,2,3-triazole-linked glycoconjugates bind with high affinity to human galectin-3” (Bioorg Med Chem, 2015).
